Measured values as given in US10065971B2 (priority 2014, dated 2018).
Where a name gives a salt, the structure may show the parent alone.

Target: human σ1 receptor (Homo sapiens, UniProt Q99720)
Experiment: biochemical
Set-up: μ and σ1 dual binding: scale not given here
Settings: combined class from Ki at human σ1 receptor (A1) and Ki at human μ-opioid receptor (A2), radioligand binding; for Ki: read-out: μ and σ1 dual binding
Description: Biological Activity Pharmacological Study Human σ1 Receptor Radioligand Assay
The assay was carried out with 7 μg of membrane suspension, 5 nM of [^3H](+)-pentazocine in either absence or presence of either buffer or 10 μM Haloperidol for total and non-specific binding, respectively. Binding buffer contained Tris-HCl 50 mM at pH 8. Plates were incubated at 37° C. for 120 minutes. After the incubation period, the reaction mix was then transferred to MultiScreen HTS, FC plates (Millipore), filtered and plates were washed 3 times with ice-cold 10 mM Tris-HCL (pH7.4). Filters were dried and counted at approximately 40% efficiency in a MicroBeta scintillation counter (Perkin-Elmer) using EcoScint liquid scintillation cocktail

human σ1 receptor, sequence (Q99720 whole entry): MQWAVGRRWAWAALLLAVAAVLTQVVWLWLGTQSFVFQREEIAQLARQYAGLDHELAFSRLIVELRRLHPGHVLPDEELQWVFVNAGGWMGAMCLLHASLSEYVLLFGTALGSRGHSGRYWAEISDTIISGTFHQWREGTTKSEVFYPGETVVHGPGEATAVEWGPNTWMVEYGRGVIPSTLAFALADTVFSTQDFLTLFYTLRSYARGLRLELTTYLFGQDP

| Ki | SMILES | μ and σ1 dual binding |
| --- | --- | --- |
|  | CC1CN(C(=O)c2ccccc2)CC2(CCN(CCc3ncccc3C(F)(F)F)CC2)O1.Cl (stereo not shown) [Example 41, (2-methyl-9-(2-(3-(trifluoromethyl)pyridin-2-yl)ethyl)-1-oxa-4,9-diazaspiro[5.5]undecan-4-yl)(phenyl)methanone hydrochloride] | ++ |
|  | CC1CN(C(=O)c2ccccc2)CC2(CCN(CCc3ccc(C(F)(F)F)cn3)CC2)O1.Cl (stereo not shown) [Example 42, (2-methyl-9-(2-(5-(trifluoromethyl)pyridin-2-yl)ethyl)-1-oxa-4,9-diazaspiro[5.5]undecan-4-yl)(phenyl)methanone hydrochloride] | ++ |
|  | CC1CN(C(=O)c2ccccn2)CC2(CCN(CCc3ncccc3Cl)CC2)O1.Cl (stereo not shown) [Example 48, (9-(2-(3-chloropyridin-2-yl)ethyl)-2-methyl-1-oxa-4,9-diazaspiro[5.5]undecan-4-yl)(pyridin-2-yl)methanone hydrochloride] | ++ |
| > 500 nM | CC1CN(C(=O)c2ccccc2F)CC2(CCN(CCc3ncccc3F)CC2)O1 (stereo not shown) [Example 59, (2-fluorophenyl)(9-(2-(3-fluoropyridin-2-yl)ethyl)-2-methyl-1-oxa-4,9-diazaspiro[5.5]undecan-4-yl)methanone dihydrochloride] |  |
|  | Cl.O=C(c1ccccc1)N1CCOC2(CCN(CCc3ccccn3)CC2)C1 [Example 63, phenyl(9-(2-(pyridin-2-yl)ethyl)-1-oxa-4,9-diazaspiro[5.5]undecan-4-yl)methanone hydrochloride] | ++ |
|  | Cl.O=C(c1ccccc1)N1CCOC2(CCN(CCc3ccc(C(F)(F)F)nc3)CC2)C1 [Example 70, phenyl(9-(2-(6-(trifluoromethyl)pyridin-3-yl)ethyl)-1-oxa-4,9-diazaspiro[5.5]undecan-4-yl)methanone hydrochloride] | ++ |
| > 500 nM | O=C(c1ccccc1)N1CCOC2(CCN(CCc3cccnc3)CC2)C1 [Example 71, phenyl(9-(2-(pyridin-3-yl)ethyl)-1-oxa-4,9-diazaspiro[5.5]undecan-4-yl)methanone dihydrochloride] |  |
| > 500 nM | CC1CN(C(=O)c2ccccc2)CC2(CCN(CCc3ccc(S(N)(=O)=O)cc3)CC2)O1 (stereo not shown) [Example 75, 4-(2-(4-benzoyl-2-methyl-1-oxa-4,9-diazaspiro[5.5]undecan-9-yl)ethyl)benzene-sulfonamide] |  |
| > 500 nM | CC1CN(C(=O)c2ccc(Cl)cn2)CC2(CCN(CCc3csc(NC(=O)OC(C)(C)C)n3)CC2)O1 (stereo not shown) [Example 78, tert-butyl (4-(2-(4-(5-chloropicolinoyl)-2-methyl-1-oxa-4,9-diazaspiro[5.5]undecan-9-yl)ethyl)thiazol-2-yl)carbamate] |  |
| > 500 nM | CC1CN(C(=O)c2ccccc2)CC2(CCN(CCc3csc(NC(=O)OC(C)(C)C)n3)CC2)O1 (stereo not shown) [Example 79, tert-butyl (4-(2-(4-benzoyl-2-methyl-1-oxa-4,9-diazaspiro[5.5]undecan-9-yl)ethyl)thiazol-2-yl)carbamate] |  |
|  | CC1CN(C(=O)c2ccccn2)CC2(CCN(CCc3cccc(OC(F)(F)F)c3)CC2)O1 (stereo not shown) [Example 80, (2-methyl-9-(3-(trifluoromethoxy)phenethyl)-1-oxa-4,9-diazaspiro[5.5]undecan-4-yl)(pyridin-2-yl)methanone dihydrochloride] | ++ |
|  | Cl.O=S(=O)(c1ccccc1)N1CCOC2(CCN(CCc3ccccc3)CC2)C1 [Example 83, 9-phenethyl-4-(phenylsulfonyl)-1-oxa-4,9-diazaspiro[5.5]undecane hydrochloride] | ++ |
| > 500 nM | CC(C)CCN1CCC2(CC1)CN(C(=O)c1ccccc1)CC(C)O2 (stereo not shown) [Example 86, (9-isopentyl-2-methyl-1-oxa-4,9-diazaspiro[5.5]undecan-4-yl)(phenyl)methanone hydrochloride] |  |
|  | CC1CN(C(=O)c2ccccc2)CC2(CCN(CCc3ccccn3)CC2)O1.Cl (stereo not shown) [Example 87, (2-methyl-9-(2-(pyridin-2-yl)ethyl)-1-oxa-4,9-diazaspiro[5.5]undecan-4-yl)(phenyl)methanone hydrochloride] | ++ |
| > 500 nM | CC(C)OCCN1CCC2(CC1)CN(C(=O)c1ccccc1)CC(C)O2 (stereo not shown) [Example 88, (9-(2-isopropoxyethyl)-2-methyl-1-oxa-4,9-diazaspiro[5.5]undecan-4-yl)(phenyl)methanone hydrochloride] |  |
| > 500 nM | CC1CN(C(=O)c2ccccc2)CC2(CCN(CC(=O)N3CCOCC3)CC2)O1 (stereo not shown) [Example 89, 2-(4-benzoyl-2-methyl-1-oxa-4,9-diazaspiro[5.5]undecan-9-yl)-1-morpholinoethanone hydrochloride] |  |
| > 500 nM | CC1CN(C(=O)c2ccccc2)CC2(CCN(CC(=O)N3CCCCC3)CC2)O1 (stereo not shown) [Example 90, 2-(4-benzoyl-2-methyl-1-oxa-4,9-diazaspiro[5.5]undecan-9-yl)-1-(piperidin-1-yl)ethanone hydrochloride] |  |

| Ki | SMILES | μ and σ1 dual binding |
| --- | --- | --- |
|  | CCC(=O)N1CC(C)OC2(CCN(CCc3ccccc3F)CC2)C1.Cl (stereo not shown) [Example 91, 1-(9-(2-fluorophenethyl)-2-methyl-1-oxa-4,9-diazaspiro[5.5]undecan-4-yl)propan-1-one hydrochloride] | ++ |
| > 500 nM | O=C(c1ccccc1)N1CCOC2(CCN(CCc3cccc([N+](=O)[O-])c3)CC2)C1 [Example 97, (9-(3-nitrophenethyl)-1-oxa-4,9-diazaspiro[5.5]undecan-4-yl)(phenyl)methanone] |  |
|  | CC1CN(C(=O)c2ccc(Cl)cn2)CC2(CCN(CCc3csc(N)n3)CC2)O1.Cl (stereo not shown) [Example 102, (9-(2-(2-aminothiazol-4-yl)ethyl)-2-methyl-1-oxa-4,9-diazaspiro[5.5]undecan-4-yl)(5-chloropyridin-2-yl)methanone hydrochloride] | ++ |
|  | CC1CN(C(=O)c2ccccc2)CC2(CCN(CCc3csc(N)n3)CC2)O1.Cl (stereo not shown) [Example 103, (9-(2-(2-aminothiazol-4-yl)ethyl)-2-methyl-1-oxa-4,9-diazaspiro[5.5]undecan-4-yl)(phenyl)methanone] | ++ |
| > 500 nM | Nc1cccc(CCN2CCC3(CC2)CN(C(=O)c2ccccc2)CCO3)c1 [Example 104, (9-(3-aminophenethyl)-1-oxa-4,9-diazaspiro[5.5]undecan-4-yl)(phenyl)methanone] |  |
|  | CC1CN(C(=O)c2ccccc2)CC2(CCN(CCc3cccc(NC(N)=O)c3)CC2)O1.Cl (stereo not shown) [Example 109, 1-(3-(2-(4-benzoyl-2-methyl-1-oxa-4,9-diazaspiro[5.5]undecan-9-yl)ethyl)phenyl)urea hydrochloride] | ++ |
|  | CC1CN(C(=O)c2ccccc2)CC2(CCN(CCc3ccccc3NC(N)=O)CC2)O1 (stereo not shown) [Example 110, 1-(2-(2-(4-benzoyl-2-methyl-1-oxa-4,9-diazaspiro[5.5]undecan-9-yl)ethyl)phenyl)urea] | ++ |
|  | CC(=O)Nc1cccc(CCN2CCC3(CC2)CN(C(=O)c2ccccc2)CCO3)c1 [Example 111, N-(3-(2-(4-benzoyl-1-oxa-4,9-diazaspiro[5.5]undecan-9-yl)ethyl)phenyl)acetamide] | ++ |
|  | CC(=O)Nc1ccccc1CCN1CCC2(CC1)CN(C(=O)c1ccccc1)CC(C)O2.Cl (stereo not shown) [Example 112, N-(2-(2-(4-benzoyl-2-methyl-1-oxa-4,9-diazaspiro[5.5]undecan-9-yl)ethyl)phenyl)acetamide hydrochloride] | ++ |
|  | CS(=O)(=O)Nc1cccc(CCN2CCC3(CC2)CN(C(=O)c2ccccc2)CCO3)c1 [Example 114, N-(3-(2-(4-benzoyl-1-oxa-4,9-diazaspiro[5.5]undecan-9-yl)ethyl)phenyl)methanesulfonamide] | ++ |
|  | CN(C)C(=O)N1CCOC2(CCN(CCc3ccccc3)CC2)C1 [Example 117, N,N-dimethyl-9-phenethyl-1-oxa-4,9-diazaspiro[5.5]undecane-4-carboxamide] | ++ |
|  | CN(C(=O)N1CCOC2(CCN(CCc3ccccc3)CC2)C1)c1ccccn1.Cl [Example 119, N-methyl-9-phenethyl-N-(pyridin-2-yl)-1-oxa-4,9-diazaspiro[5.5]undecane-4-carboxamide hydrochloride] | ++ |
| > 500 nM | O=C(Nc1cccnc1)N1CCOC2(CCN(CCc3ccccc3)CC2)C1 [Example 121, 9-phenethyl-N-(pyridin-3-yl)-1-oxa-4,9-diazaspiro[5.5]undecane-4-carboxamide] |  |
|  | C[C@@H]1CN(C(=O)c2ccccn2)CC2(CCN(CCc3ccccc3)CC2)O1.Cl [Example 124, (R)-(2-methyl-9-phenethyl-1-oxa-4,9-diazaspiro[5.5]undecan-4-yl)(pyridin-2-yl)methanone hydrochloride] | ++ |
|  | COc1cccnc1CCN1CCC2(CC1)CN(C(=O)c1ccccc1F)CC1(CC1)O2 [Example 130, 12-[(2-fluorophenyl)carbonyl]-8-(2-(3-methoxypyridin-2-yl)ethyl)-4-oxa-8,12-diazadispiro[2.1.5.3]tridecane] | ++ |
|  | N#Cc1ccccc1C(=O)N1CC2(CCN(CCc3ncccc3F)CC2)OC2(CC2)C1 [Example 135, 2-(8-(2-(3-fluoropyridin-2-yl)ethyl)-4-oxa-8,12-diazadispiro[2.1.5.3]tridecane-12-carbonyl)benzonitrile] | ++ |
| > 500 nM | COC(=O)CCN1CCC2(CC1)CN(C(=O)c1c(F)cccc1F)CC1(CC1)O2 [Example 140, methyl 3-(12-(2,6-difluorobenzoyl)-4-oxa-8,12-diazadispiro[2.1.5.3]tridecan-8-yl)propanoate] |  |
